Assay results published in patent US20050244906A1, “Detection kit, assay plate to be used therein, detection method, evaluation method, polyclonal antibody of frog vitellogenin and process for producing the same” (priority 2002, published 2005).
Like-named read-outs stand apart in the source and are kept apart here.

Columns and labels:
[1] = test system: hepatocyte in primary culture of an adult male Xenopus laevis; type: cell-based
Text: Furthermore, by use of the assay system, the antagonist activity of a target substance could be evaluated.

[2] = test system: adult male Xenopus laevis; assay: Exposure in water of adult male Xenopus laevis; vitellogenin quantified by ELISA sandwich method; type: in vivo
Procedure: Adult male Xenopus laevis of same age (two years and half old) were used. Every five thereof were bred in each of a water bath where one in which in 20 L of dechlorinated tap water E2 dissolved in DMSO was added was filled (experimental group) and a water bath where one in which in 20L of dechlorinated tap water the same amount of DMSO that is a solvent was added is filled (comparative group). Exposure concentrations of the E2 were five levels of 0.1 nM, 1 nM, 10 nM, 100 nM and 1000 nM, and, at 3.5 days during a breeding period of 7 days, the breeding water was once exchanged. A water temperature was set at 22 degrees centigrade, bright and dark periods each were set at 12 hr, and during a test period bait was not fed.
At the detection of the vitellogenin, two samples of a blood serum and a liver homogenate were used and compared to study.
A. Sampling of Blood Serum
1. To an abdominal cavity of a frog, 0.5 to 1.0 ml of an anesthetic agent (20 mg/ml aminobenzoic acid ethyl ester) was injected.
2. An operation was performed, and 0.2 ml of blood was sampled from a pulsating heart with a syringe in a tube and placed on ice.
3. A centrifugal process was applied at 15000 rpm, at 4 degrees centigrade for 10 min, followed by sampling a supernatant.
4. Dilution was applied at a factor of 10 with a 20 mM of an EDTA-0.2 percent Tween 20-PBS solution followed by refrigerating and preserving (in the case of long preservation, by freezing and preserving).
The diluted sample was quantified of the vitellogenin according to the ELISA sandwich method.
1. After the sampling of blood, a liver piece was cut to substantially 0.05 to 0.1 g followed by weighing.
2. In a tube where the liver piece put, 1 ml of 20 mM EDTA-0.5% Tween 20-PBS solution was added.
3. The liver was homogenized over ice.
4. A centrifugal process was applied at 15000 rpm, at 4 degrees centigrade for 10 min, followed by sampling a supernatant, further followed by refrigerating and preserving (in the case of long preservation, by freezing and preserving).
The diluted sample was quantified of the vitellogenin by ELISA sandwich.

[3] = test system: hepatocyte in primary culture of an adult male Xenopus laevis; assay: VTG synthesis induction in primary hepatocyte culture, VTG in culture liquid by ELISA; type: cell-based; conditions: for estrogenic activity detected, equivalent E2 concentration: primary hepatocyte culture
Procedure: • 10×perfusate (0.14% KCl, 5.5% NaCl, 0.44% pyruvate, 1% glucose, 2.38% HEPES, 5% BSA and 0.2% NaHCO3) • Collagenase perfusate (1×perfusate is controlled to pH 7.2 to 7.5 with phenol red to prepare a solution of 0.1% collagenase. Filtration and sterilization) • Culture liquid (50% L-15, 1 μg/ml insulin, 0.5% glucose and antibiotics) B: Sampling Method of Hepatocyte […] A frog is sterilized in potassium permanganate (5 mg/ml) for 2 hr or more (superficial skin color becomes brown). 2. An anesthetic (20 mg/ml-aminobenzoic acid ethylester) is injected by 0.5 to 1.0 ml to an abdominal cavity. 3. A ventral skin is thoroughly sterilized with a cotton bud wetted with alcohol, followed by operating. 4. A heart is exposed, a syringe is inserted from a cardiac chamber, and a collagenase perfusate is sent in through a hepatic vein by use of a […] pump to perfuse a liver. 5. The liver is taken out and transferred in a beaker, followed by cutting small with a pair of scissors. 6. Transferring into an L-tube together with a small amount of collagenase perfusate. 7. Shaking for 30 to 60 min in an incubator at 24 degrees centigrade. 8. Suspending thoroughly with a pipette, followed by filtering through a nylon mesh. 9. A slight amount of culture liquid is added, followed by centrifuging at 300 rpm for 1 to 2 min. […] A centrifugal supernatant is sucked and removed, followed by centrifuging a culture liquid once more (this operation is repeated twice). 11. […] 12. Seeding every 100 to 300 μl to a microplate (substantially 20,000 pieces/well is better). 13. Cultivating in an incubator at 24 degrees centigrade. […] In the case of the E2 processing, it is known that from the third day on after the processing vitellogenin can be detected in the culture liquid; however, since survived hepatocytes in culture are stable for three weeks, for the test of a substance low in the activity, evaluation is carried out for a longer period. As one of applications of the ELISA KIT, an application to the quantification of VTG concentration in a liquid Xenopus laevis hepatocyte culture was studied as well. […] Of a culture liquid after 6 days from the start of culturing (exchanged on the third day), the quantification of the VTG concentration was carried out with the ELISA KIT. By combining the exposure test to hepatocytes in primary culture and the ELISA, an application to a quantitative screening method of the estrogen activity of various chemicals was studied. […] According to a method similar to (Example 2-2), primary cultured hepatocytes of an adult male Xenopus laevis were prepared, followed by culturing in a culture liquid containing one of the chemicals, and with a culture liquid after 6 days, according to the ELISA, a VTG concentration in the culture liquid was quantified.

[4] = test system: adult male Xenopus laevis; assay: Injection method in adult male Xenopus laevis; vitellogenin quantified by ELISA sandwich method; type: in vivo
Procedure: Adult male Xenopus laevis same in the age as A were used. Five thereof in which an E2 solution was injected by means of injection (experimental group) and another five thereof in which propylene glycol that was a solvent was injected by use of an injection by substantially 200 μl (comparative group) were bred in a glass water bath filled with 20 L of dechlorinated tap water. Exposure concentrations of E2 were five levels of 0.002 μg/g BW, 0.02 μg/g BW, 0.2 μg/g BW, 2 μg/g BW and 20 μg/g BW, and, during a breeding period of 7 days, reinjection was once (at 3.5 days) applied. A water temperature was set at 22 degrees centigrade, bright and dark periods each were set at 12 hr, and during a test period bait was not fed. At the injection, individual organisms were measured of weight and substantially 200 μl of the E2 solution was injected so as to be a set concentration. At the detection of the vitellogenin, two samples of a blood serum and a liver homogenate were used and compared to study. A. Sampling of Blood Serum 1. To an abdominal cavity of a frog, 0.5 to 1.0 ml of an anesthetic agent (20 mg/ml aminobenzoic acid ethyl ester) was injected. 2. An operation was performed, and 0.2 ml of blood was sampled from a pulsating heart with a syringe in a tube and placed on ice. 3. […] The diluted sample was quantified of the vitellogenin according to the ELISA sandwich method.

## CC(C)(c1ccc(O)cc1)c1ccc(O)cc1 [BPA, bisphenol A]
[1]; co-culture with 5 nM E2, increasing concentration of added chemical
  antagonist activity on VTG synthesis induction due to 5 nM E2: antagonistic activity was exhibited

## C[C@]12CC[C@@H]3c4ccc(O)cc4CC[C@H]3[C@@H]1CC[C@@H]2O [E2, 17β-estradiol]
[2]; exposure in water for 7 days, adult male, ELISA KIT
  E2 concentration at which blood plasma VTG / VTG synthesis induction can be detected with the ELISA KIT: ≥ 1 nM
[2]; exposure in water, 7 days, 100 nM
  vitellogenin response at 100 nM: obviously rose high
[2]; exposure in water, 7 days, 1000 nM
  vitellogenin synthesis at 1000 nM: does not increase
[2]; exposure in water, 7 days, adult male
  E2 concentration from which vitellogenin response was observed: ≥ 10 nM
[2]; exposure method in water
  concentration range of abrupt rise of vitellogenin: 10 to 100 nM
[2]; exposure method in water, 100 nM
  production quantity of the vitellogenin: ~13000 μg/ml
[3]; cultivated hepatocyte
  concentration at which vitellogenin synthesis reaches the maximum: lower than 1000 nM
[3]; hepatocyte in culture, culture liquid, ELISA
  exposure concentration giving significant concentration-dependent increase in vitellogenin concentration: ≥ 0.6 nM
[3]; ELISA KIT
  estrogenic activity detected, equivalent E2 concentration: ~0.1 nM
[3]; ELISA with biotinylated antibody
  estrogenic activity detected, equivalent E2 concentration: ~0.03 nM
[4]
  dose dependence of vitellogenin response: increased dependent on an administered amount
[4]; at 73 nM (assumed uniform diffusion in body)
  production quantity of the vitellogenin: ~14000 μg/ml

## nonylphenol [NP]
[1]
  antagonist activity on VTG synthesis induction due to 5 nM E2: antagonistic activity was exhibited
